{"source": "paper PMC10059083", "about": "“Design, Synthesis, and Biological Evaluation of Novel Hydroxamic Acid-Based Organoselenium Hybrids” (Pharmaceuticals, 2023)", "key": {"[1]": {"tested_on": "C. albicans", "experiment": "MIC by microdilution, C. albicans", "format": "cell-based", "conditions": "Candida albicans, read-out: MIC C. albicans", "from_the_text": "(§1) The encouraging antitumor properties of the OSe compounds motivated us to evaluate their corresponding antimicrobial activities against the C. albicans fungal strain, S. aureus Gram-positive bacteria, and E. coli Gram-negative bacteria. Therefore, we applied the agar diffusion and minimum inhibitory concentration (MIC) methods using clotrimazole antifungal and ampicillin antibacterial drugs as standards.\n(§2) The products’ antimicrobial properties were examined according to the previously reported method, via agar well diffusion assay against E. coli, S. aureus, and C. albicans. A microdilution method was also used to record MICs (M), following the previously reported procedure. Experimental details can be found in the Supplementary Materials.\n(§3) Briefly, a concentration of 1 mM was prepared for each compound by dissolving in DMSO. Paper discs of standard size […] were sterilized in an autoclave and soaked in 9 µL of the test compounds, and placed in the Petri dishes, which in turn contain a nutrient media (agar 9 g, peptone 5 g, and beef extract 3 g) seeded with the dedicated strain. Incubation lasted for 13 h at 36 0C. […]"}, "[2]": {"tested_on": "S. aureus", "experiment": "MIC by microdilution, S. aureus", "format": "cell-based", "conditions": "Staphylococcus aureus; microdilution method", "from_the_text": "as §1, §2, §3"}, "[3]": {"tested_on": "MCF-7 cells", "experiment": "MTT antiproliferative assay, MCF-7 cells", "format": "cell-based", "from_the_text": "(§4) Recently, OSe agents have attracted interest due to their potential chemoprotective and antitumor properties. […] Therefore, we estimated the OSe agents’ antiproliferative activities against different cancer cells, i.e., MCF-7 and HepG2 cells and healthy lung fibroblast WI-38 cells, using the MTT assay. The drug doxorubicin was employed as the standard. The corresponding therapeutic indices (TI) are described as the proportion of the WI38 cells IC50 to the IC50 of the cancer cell (e.g., MCF-7 and HepG2) (Table 1).\n(§5) The products’ anticancer activity was examined using the MTT assay against breast (MCF-7) carcinoma cells, liver (HepG2), and normal WI-38 cells, following the previously reported method. Experimental details can be found in the Supplementary Materials.\n(§6) 1.1. The biological assays\n(§7) 1.1.1. The anticancer activity\n(§8) The breast adenocarcinoma (MCF-7), Hepatocellular carcinoma (HEPG-2), and normal fibroblast (WI-38) cells were obtained from ATCC via Holding company for biological products and vaccines (VACSERA), Cairo, Egypt. The reagents […] medium, MTT, DMSO, and fetal bovine serum was obtained from Sigma Aldrich. Dulbecco’s modified Eagle’s medium was used as the culture medium for the cells, and the cytotoxicity was evaluated using the reported MTT assay. Doxorubicin was used as the positive reference, and the IC50 values were obtained from the corresponding dose-response curve.\n(§9) This colorimetric assay is based on converting the yellow tetrazolium bromide (MTT) to a purple formazan derivative by mitochondrial succinate dehydrogenase in viable cells. Cell lines were cultured in […] medium with 10% fetal bovine serum. Antibiotics added were 100 units/ml penicillin and 100µg/ml streptomycin at 37 C in a 5% Co2 incubator. The cell lines were seeded in a 96-well plate at a density of 1.0x10^4 cells/well. at 37 C for 48 h under 5% Co2. After incubation, the cells were treated with different concentrations of compounds and incubated for 13 […]\n(§10) Finally, dimethyl sulfoxide (DMSO) in the volume of 100 µl is added to each well to dissolve the purple formazan formed. The colorimetric assay is measured and recorded at an absorbance of 570 […]\n(§11) The percentage of the relative cell viability was calculated as (A570 of treated samples/A570 of the untreated sample) X 100. […]"}, "[4]": {"tested_on": "S. aureus", "experiment": "Agar diffusion assay, S. aureus", "format": "cell-based, Staphylococcus aureus", "set-up": "concentration or dose not given beside the values", "conditions": "ratio of inhibition zone of compound to that of positive control (ampicillin)", "from_the_text": "as §1\nas §2, with “Materials. […]” for “Materials.”\n1.1.2. The antimicrobial activity\nThe antimicrobial activities of the OSe compounds were evaluate d against C. albicans yeast as well as E. coli gram-negative and S. aureus gram-positive bacteria employing the agar well diffusion assay.\nBriefly, a concentration of 1 mM was prepared for each compound by dissolving in DMSO. Paper discs of standard size […] were sterilized in an autoclave and soaked in 9 µL of the test compounds, and placed in the Petri dishes, which in turn contain a nutrient media (agar 9 g, peptone 5 g, and beef extract 3 g) seeded with the dedicated strain. Incubation lasted for 13 h at 36 0C.\nExperiments were replicated three times and the antifungal clotrimazole and antibiotic ampicillin […]"}, "[5]": {"tested_on": "S. aureus", "experiment": "Agar diffusion assay, S. aureus", "format": "cell-based", "conditions": "Staphylococcus aureus; 6-mm disks soaked with 20 μM of the OSe agents; read-out: S. aureus ZID (inhibition zone diameter)"}, "[6]": {"tested_on": "C. albicans", "experiment": "Agar diffusion assay, C. albicans", "format": "cell-based, Candida albicans"}, "[7]": {"experiment": "DPPH radical scavenging assay", "procedure": "The antioxidant activities of the OSe compounds were intensively investigated because these are usually the cause of their chemopreventive potency. Their redox activities were evaluated via DPPH and ABTS assays, using ascorbic acid as the standard. We spectrophotometrically measured the antioxidant efficiency of the OSe compounds by their ability to decolorise the DPPH^. and ABTS^. radicals at […] (Figure 2).\nThe compounds’ antioxidant properties were assessed by in vitro bioassays using DPPH and ABTS, following the reported method. Details are in the Supplementary Materials.\nFigure 4 Estimation of the OSe compounds’ redox activities via DPPH and ABTS experiments. All tests are mean ± S.D. ABTS experiment: absorbance was followed at 734 nm for OSe compounds (50 µL, 1 mM in MeOH) and ABTS solution (60 µL). DPPH Absorbance was monitored at 517 nm for OSe compounds (200 µL, 1 mM in MeOH) and DPPH (400 µL) after 30 min. […]\n1.1.3. The antioxidant activity\n1.1.3.1. The DPPH bioassay\nThe hydrogen atom or electron donation ability of the corresponding compounds was measured by estimating the bleaching of the purple color of a methanolic solution of DPPH [5]. This spectrophotometric assay uses stable DPPH. reagent. The sample was prepared by adding […] of the OSe compounds (1 mM in methanol) to […] DPPH in methanol. After 30 min of incubation in the dark, the absorbance was read against a blank at […]. Ascorbic acid (vitamin C) and ebselen were used as standard antioxidants (positive control). A blank sample was run without DPPH. A negative control sample was run using methanol instead of the sample. The radical scavenging activity was calculated using the following equation:\nInhibition%= (Ablank-Asample)/(Ablank)*100. […]"}, "[8]": {"tested_on": "WI-38 cells", "experiment": "MTT cytotoxicity assay, normal lung fibroblast WI-38 cells", "format": "cell-based", "conditions": "Homo sapiens, WI-38, 24 h, read-out: WI38 IC50", "from_the_text": "as §4, §5, §6, §7, §8, §9, §10, §11"}}, "note": "“And” between values parts separate entries of the source, which are not always exact repeats. Identical values can stand only once.", "data": [{"molecule": "Nc1ccc([Se]CC(=O)NOCc2ccccc2)cc1", "note": "[Compound 8, 2-((4-Aminophenyl)selanyl)-N-(benzyloxy)acetamide]", "values": [{"measurement": "MIC", "setting": "[1]", "result": 4, "unit": "µM"}, {"measurement": "MIC", "setting": "[2]", "result": 4, "unit": "µM"}, {"measurement": "IC50", "setting": "[3]; Homo sapiens, MCF7, 24 h, read-out: MCF7 IC50", "result": "9.86 ± 0.7", "unit": "µM"}, {"measurement": "MCF7 TI (therapeutic index)", "setting": "[3]; ratio of IC50 against WI38 cells to IC50 against MCF-7 cells", "result": 2.8}, {"measurement": "S. aureus IA% (activity index)", "setting": "[4]", "result": 90.5, "unit": "%"}, {"measurement": "zone of inhibition at 20 µM", "setting": "[5]", "result": 19, "unit": "mm"}, {"measurement": "zone of inhibition at 20 µM", "setting": "[6]; Candida albicans, read-out: C. albicans ZID (inhibition zone diameter)", "result": 22, "unit": "mm"}, {"measurement": "C. albicans IA% (activity index)", "setting": "[6]; ratio of inhibition zone of compound to that of positive control (clotrimazole)", "result": 91.7, "unit": "%"}, {"measurement": "antioxidant (scavenging) activity in the DPPH assay", "setting": "[7]; compounds 200 µL, 1 mM in MeOH, DPPH 400 µL, 30 min, absorbance at 517 nm", "result": "85.1% and 92.3%"}, {"measurement": "IC50", "setting": "[7]; concentration causing 50% decrease in absorbance, DPPH assay", "result": "23.67 ± 0.21", "unit": "µM"}, {"measurement": "IC50", "setting": "[8]", "result": "27.4 ± 2.1", "unit": "µM"}]}]}
